Laboratory results from patent publication US20040162298A1, “Method of treating HIV infection by preventing interaction of CD4 and gp120” (priority 2002, published 2004).

Experiments:
HIV = assay: Anti-HIV activity (assay not specified); type: cell-based; conditions: Human immunodeficiency virus 1, quoted in text
gp120JRFL [1] = assay: Circular dichroism analysis of gp120 conformational change; parameters: species or system HIV-1
Procedure: (§1) CD spectra was collected on a Jasco J-720 spectropolarimeter at ambient temperature. Protein concentration in the sample were kept a ˜1 μM, with the exception of sCD4 (1.8 μM) in 20 mM Tris/150 mM NaCl, pH 8.0. Concentration of compound used in the experiments were as indicated.
(§2) Circular Dichroism (CD) analysis. (Method for FIG. 3 results). The CD spectra of purified gp120JRFL (1.2 μM in 5 mM Tris, pH 8.0/150 mM NaCl) were obtained, in the presence and absence of an inhibitor, on a Jasco J-720 spectropolarimeter at ambient (21-23° C.) temperature. Samples containing varying protein-to-compound mole ratios were placed in a quartz cuvette with a 1-mm pathlength. The molar ellipticity (θ) was monitored between 200 nm and 250 nm as the average of 12-20 scans. Soluble CD4 was used as a negative protein controls. Compound, BMS-066, with no anti-HIV activity (EC50>5 μM) was included as a compound control.

gp120JRFL [2] = assay: Biacore biosensor binding to immobilized gp120; parameters: species or system HIV-1; conditions: for Biacore signal on gp120-coated surface: compound at 1.5 μM, FIG. 2
Procedure: GP120JRFL was immobilized on the surface of a CM-chip to a surface density of 12000. Inhibitors prepared in the running buffer was flown over the surface at 30 μl/min. The sensorgram was recorded and normalized against the buffer alone sensorgram, using a Biacore 3000 instrument.
Biacore biosensor evaluation of gp120-inhibitor binding. (See FIG. 2 for results). The selective binding of entry inhibitors with gp120 was evaluated on a Biacore 3000 biosensor. Purified gp120JRFL was immobilized onto the flow cell surface of a CM-5 chip via EDC/NHS activated covalent modification, according to the protocol described by Biacore Inc. (Uppsala, Swiden). The surface density of immobilized gp120 reached 12000-15000 RU. Soluble CD4 and BSA coated surfaces were also immobilized on separate flow cell surfaces as controls.

sCD4 = target: T1, sCD4 (Homo sapiens, UniProt P01730); assay: Circular dichroism analysis, sCD4 negative protein control; conditions: sCD4 1.8 μM, compound 3.5 μM, FIG. 3B
T1 construct: purchased ImmunoDiagnostics, Inc. (Woburn, Mass.)
Procedure: as §1, §2

[3] = tested on: HIV-1 single-round infectious reporter virus; assay: Anti-HIV single cycle infection assay (luciferase reporter virus, HeLa/CD4/CCR5 cells); type: cell-based; conditions: Human immunodeficiency virus 1, HeLa-CD4/CCR5, 72 h, read-out: Anti-HIV single cycle infection EC50
Procedure: EC50 values show concentration of compound needed to inhibit 50% HIV viral replication.
Single-round infectious reporter virus was produced by co-transfecting human embryonic Kidney 293 cells with an HIV-1 envelope DNA expression vector and a proviral cDNA containing an envelope deletion mutation and the luciferase reporter gene inserted in place of HIV-1 nef sequences (Chen, 1994). Transfections were performed using LipofectAMINE PLUS reagent as described by the manufacturer (Life Technologies, Gaithersburg, Md.). The resulting reporter viruses are then used to infect HeLa/CD4/CCR5 cells in the following manner. Serial diluted compound was added to HeLa/CD4/CCR5 cells plated in 96 well plates at a cell density of 5×10^4 cells per well in 100 μl Dulbecco's Modified Eagle Medium containing 10% fetal Bovine serum. One hundred microliter of single-round infectious reporter virus in Dulbecco's Modified Eagle Medium was then added to the plated cells and compound at a multiplicity of infection (MOI) of 0.01. Samples were harvested 72 hours after infection and viral infection was monitored by measuring luciferase expression from viral DNA in the infected cells using a luciferase reporter gene assay kit as described by the manufacturer.

gp120JRFL/CD4 = gp120JRFL/CD4 (Human immunodeficiency virus 1, UniProt Q75760); assay: gp120/CD4 binding assay (ELISA); parameters: species or system HIV-1
Procedure: The effect of BMS-806 on the gp120/CD4 binding. The gp120JRFL in supernatant was captured onto anti-gp120 antibody (D7324) coated plate. The compound and soluble CD4 were added to the plate simultaneously and CD4 bound to gp120 was detected by ELISA using anti-CD4 antibody OKT4 as a primary antibody and the secondary antibody goat-anti-mouse-peroxidase conjugate. Value are the means±S.E.M which represent multiple separate experiments.
IC50 values show concentration of compound needed to inhibit 50% of binding of gp120 and CD4.
The gp120 capturing ELISA methods was derived from Moore et al (42). Briefly, the 96 well assay plates (Immulon 4, Dynatech Technologies Inc. Chantilly, Va.) were coated overnight at 4° C. with 100 μl per well of 10 ug/ml D7324 solution in 100 mM bicarbonate buffer (pH9.6). The antibody-coated plate was washed twice with TBS (20 mM Tris-HCl, 500 mM NaCl, pH7.5). All wells were blocked with 100 μl of 3% BSA in TBS for ½ hour at room temperature. Excess BSA was removed with three TBS washes. Gp120 (purified or in supernatant) were diluted in buffer C (50 mM Tris-HCl, pH 7.5, 100 mM NaCl, 1% BSA) and added to D7324 coated plate(s) at 100μl/well. After incubating at 37° C. for 2 hours, plate(s) was washes three times with Buffer (20 mM Tris-HCl, 500 mM NaCl, 0.05% Tween-20, pH7.5) and the bound gp120 was detected by Anti-gp120-peroxidase conjugate (Cross-reactive, ImmunoDiagnostics, Inc) at a final dilution of 1:1000 in BufferC. Bound antibody-peroxidase conjugates were detected with TMB solution (Pierce) and the optical density was measured at 450 nm. Known concentration of the purified gp120IIIB (ABI) were used to generate a standard curve for gp120 quantitation.
The assay is similar to the gp120 capturing ELISA method described above with minor modifications.(43). After coating gp120 onto the plates, sCD4 was added to the plate at a final concentration of 200 ng/ml for one hour at room temperature. […] After washing with BufferB, 100 μl of TMB solution was added and the optical density was read at 450 nm.

HIV-1 A0-18 = assay: Activity against laboratory adapted HIV-1 strain A0-18; type: cell-based; conditions: Human immunodeficiency virus 1
Procedure: (§3) Viruses and cells: (Method for Table 2 results). T-tropic (X4) strains of laboratory adapted HIV-1 were amplified in MT-2 cells and titered using a virus yield assay (17). The laboratory adapted M-tropic (R5) viruses were grown in macrophages or PM1 cells and p24 ELISA assay was used to detect the virus. The TCID50/ml (tissue culture infectious dose) was calculated by the method of Spearman-Karber. Titration of viral stocks and assaying for compound sensitivity were carried out in the cell lines the viruses were originally amplified in. The 50% inhibitory concentration (EC50) was calculated by using the exponential form of the median effect equation where (Fa)=1/[1+(ED50/drug conc.)^m] (17).

HIV-1 MN = assay: Activity against laboratory adapted HIV-1 strain MN; type: cell-based
Procedure: as §3

HIV-1 SF-2 = assay: Activity against laboratory adapted HIV-1 strain SF-2; type: cell-based; conditions: Human immunodeficiency virus 1
Procedure: as §3

HIV-1 Bru = assay: Activity against laboratory adapted HIV-1 strain Bru; type: cell-based; conditions: Human immunodeficiency virus 1
Procedure: as §3

HIV-1 IIIB = assay: Activity against laboratory adapted HIV-1 strain IIIB; type: cell-based; conditions: Human immunodeficiency virus 1, IIIB
Procedure: as §3

[4] = tested on: laboratory strains of B subtype HIV-1; assay: Activity against panel of laboratory strains of B subtype HIV-1; type: cell-based; conditions: Human immunodeficiency virus 1, read-out: EC50 values against 11 of the 13 laboratory strains
Procedure: as §3

HIV-1 NL4-3 = assay: Activity against laboratory adapted HIV-1 strain NL4-3; type: cell-based; conditions: Human immunodeficiency virus 1, NL43
Procedure: as §3

HIV-1 JRFL = assay: Activity against laboratory adapted HIV-1 strain JRFL; type: cell-based; conditions: Human immunodeficiency virus 1, CCR5
Procedure: as §3

HIV-1 RF = assay: Activity against laboratory adapted HIV-1 strain RF; type: cell-based
Procedure: as §3

HIV-1 SF-162 = assay: Activity against laboratory adapted HIV-1 strain SF-162; type: cell-based; conditions: Human immunodeficiency virus 1, CCR5
Procedure: as §3

HIV-1 LAV = assay: Activity against laboratory adapted HIV-1 strain LAV; type: cell-based; conditions: Human immunodeficiency virus 1
Procedure: as §3

HIV-1 Bal = assay: Activity against laboratory adapted HIV-1 strain Bal; type: cell-based; conditions: Human immunodeficiency virus 1, BAL, CCR5, Virus Bal
Procedure: as §3

[5] = tested on: V1V2V3 loop-deleted gp120JRFL; assay: Binding of [3H]BMS-853 to V1V2V3 loop-deleted gp120; parameters: species or system HIV-1; conditions: radioactive inhibitor
gp120JRFL [6] = assay: FlashPlate binding of [3H]BMS-853 to gp120, incl. sCD4 competition; parameters: species or system HIV-1; conditions: radioactive inhibitor
Procedure: Interaction of gp120JRFL (wild type) with ^3H-BMS-853. FlashPlate was coated with increase amount of gp120 and constant amount of ^3H-BMS-853 (16.5 nM) in BufferC was added to each well and the binding assay was allowed to proceed as described in material and methods. Points are averages of duplicate or triplicate determinations.
Competition binding of ^3H-BMS-853 binding to gp120 by soluble CD4.(sCD4) ^3H-BMS-853 bound to gp120 in the presence of varying amount of sCD4 was determined as described under material and methods. Points shown were obtained in a signal experiment, performed in duplicate. Data were analyzed with Prism computer program. (GraphPad Software, Inc).
FlashPlate assay. The binding of [^3H]BMS-853 to gp120 was performed on FlashPlate (NEN,SMP200). Coating of gp120 onto FlashPlate was essentially the same as described for gp120 capturing ELISA. After brief washes of gp120 coated FlashPlate with TBS, [^3H]BMS-853 was added to a final concentration of 16.5 nM in BufferC and the plate was kept at room temperature overnight. The plate was washed once with TBS and then counted in TopCount® Microplate Scintillation counter. Varying concentrations of gp120 were used to show the gp120 dose-dependent binding of [^3H]BMS-853 (FIG. 1).

`Cc1ccc(C)c2c(C(=O)C(=O)N3CCN(C(=O)c4ccccc4)CC3)c[nH]c12` [BMS-033] was tested, and the EC50 (HIV) was over 5 µM and the “attenuation of the gp120JRFL CD signal” value (gp120JRFL [1]; compound at 2 μM, FIG. 3C) was “did not cause any attenuation”.

With `COc1cnc(-c2cnc(N(C)C)cn2)c2[nH]cc(C(=O)C(=O)N3CCN(C(=O)c4ccccc4)CC3)c12` [BMS-038] the “Biacore response at various concentrations on gp120-coated surface” value (gp120JRFL [2]; various concentrations) was “dose-dependent increase of reflective index”.

With `COc1ncc(OC)c2c(C(=O)C(=O)N3CCN(C(=O)c4ccccc4)CC3)c[nH]c12` [BMS-043] the EC50 (HIV) was 0.0008 µM, the “attenuation of the sCD4 CD signal” value (sCD4) was “no attenuation” and the “attenuation of the protein CD signal” value (gp120JRFL [1]; gp120JRFL 1.2 μM, inhibitor 2.1 μM) was 40%. For the same compound, the “Biacore signal on gp120-coated surface” value (gp120JRFL [2]) was “intermediate signals”.

Compound `O=C(C(=O)N1CCN(C(=O)c2ccccc2)CC1)c1c[nH]c2ccccc12` [BMS-216] has an EC50 [3] of 0.2 µM and an IC50 (gp120JRFL/CD4) of 1.8 ± 0.3 µM.

For `COc1ccnc2[nH]cc(C(=O)C(=O)N3CCN(C(=O)c4ccccc4)C[C@H]3C)c12` [BMS-806, (R)—N-(benzoyl)-3-methyl-N′-[(4-methoxy-7-azaindol-3-yl)-oxoacetyl]-piperazine], the EC50 (HIV-1 A0-18) was 0.0236 µM, the EC50 (HIV-1 MN; Human immunodeficiency virus 1, Virus MN, coreceptor CXCR4, host MT-2) was 0.844 µM and the “blocking of infection” value (HIV-1 MN; virus MN) was “not efficiently blocked”. It also gave an EC50 (HIV-1 SF-2) of 0.0265 µM, an EC50 (HIV-1 Bru) of 0.00326 µM and an EC50 (HIV) of 0.001 µM. The EC50 (HIV-1 IIIB) was 0.0394 µM, the EC50 [4] was 0.00085 to 0.0758 µM and the EC50 (HIV-1 NL4-3) was 0.00294 µM. For the same compound, the EC50 (HIV-1 JRFL) was 0.00147 µM, the EC50 (HIV-1 RF; Human immunodeficiency virus 1) was 6.03 µM and the “blocking of infection” value (HIV-1 RF; virus RF) was “not efficiently blocked”. For the same compound, the EC50 [3] was 0.0006 µM, the EC50 (HIV-1 SF-162) was 0.00346 µM and the EC50 (HIV-1 LAV) was 0.00198 µM. It also gave an IC50 (gp120JRFL/CD4) of 0.28 µM, an EC50 (HIV-1 Bal; coreceptor CCR5, host Macrophage) of 0.0084 µM and an EC50 (HIV-1 Bal; coreceptor CCR5, host PM1) of 0.0155 µM. The “Biacore signal on gp120-coated surface” value (gp120JRFL [2]) was “intermediate signals”.

`COc1ccc(OC)c2c(C(=O)C(=O)N3CCN(C(=O)c4ccccc4)CC3)c[nH]c12` [BMS-853] was tested, and the EC50 [3] was 0.0001 µM and the IC50 (gp120JRFL/CD4) was 0.024 ± 0.009 µM.

For `COc1ccc(OC)c2c(C(=O)C(=O)N3CCN(C(=O)c4ccccc4)CC3)c[nH]c12` [[^3H]BMS-853], the “binding to V1V2V3 loop-deleted gp120JRFL” value [5] was “bound significantly less effective” and the “binding to full-length recombinant gp120JRFL” value (gp120JRFL [6]) was “bind effectively”.
